Reference: patent publication US20170000133A1, “BENZOXABOROLE FUNGICIDES” (SYNGENTA PARTICIPATIONS AG, priority 2013, published 2017)

Columns and labels:
Plasmopara viticola = assay: whole plant or invertebrate; assay type: in vivo; conditions: foliar, read-out: disease control
Pythium ultimum = Pythium ultimum / liquid culture (seedling damping off); assay type: cell-based; conditions: Globisporangium ultimum; 200 ppm; potato dextrose broth, 24° C., 2-3 days after application; read-out: disease control (inhibition of growth determined photometrically)
Gaeumannomyces graminis = Gaeumannomyces graminis / liquid culture (take-all of cereals); assay type: cell-based; conditions: PDB potato dextrose broth, 24° C., 4-5 days after application, read-out: disease control (inhibition of growth determined photometrically)
Method: (§1) 14. Gaeumannomyces graminis/Liquid Culture (Take-all of Cereals): Mycelial fragments of the fungus from cryogenic storage were directly mixed into nutrient broth (PDB potato dextrose broth). After placing a DMSO solution of test compound into a 96-well microtiter plate at an application rate of 200 ppm, the nutrient broth Cp.33, containing the fungal spores is added. The test plates were incubated at 24° C. and the inhibition of growth was determined photometrically 4-5 days after application.

[1] = test system: Thanatephorus cucumeris (Rhizoctonia solani); assay: Thanatephorus cucumeris (Rhizoctonia solani) / liquid culture (foot rot, damping-off); assay type: cell-based; conditions: PDB potato dextrose broth, 24° C., 3-4 days after application, read-out: disease control (inhibition of growth determined photometrically)
Method: 17. Thanatephorus cucumeris (Rhizoctonia solani)/Liquid Culture (Foot Rot, Damping-Off): Mycelia fragments of a newly grown liquid culture of the fungus were directly mixed into nutrient broth (PDB potato dextrose broth). After placing a DMSO solution of the test compounds into a 96-well microtiter plate at an application rate of 200 ppm, the nutrient broth containing the fungal material was added. The test plates were incubated at 24° C. and the inhibition of growth was determined photometrically 3-4 days after application.

[2] = test system: Monographella nivalis (Microdochium nivale); assay: Monographella nivalis (Microdochium nivale) / liquid culture (foot rot cereals); assay type: cell-based; conditions: PDB potato dextrose broth, 24° C., 4-5 days after application, read-out: disease control (inhibition of growth determined photometrically)
[3] = test system: Mycosphaerella graminicola (Septoria tritici); assay: Mycosphaerella graminicola (Septoria tritici) / liquid culture (Septoria blotch); assay type: cell-based; conditions: Zymoseptoria tritici, PDB potato dextrose broth, 24° C., 4-5 days after application, read-out: disease control (inhibition of growth determined photometrically)
Method: as §1, with “13. Mycosphaerella graminicola (Septoria tritici)/Liquid” for “14. Gaeumannomyces graminis/Liquid”, “(Septoria Blotch): Conidia” for “(Take-all of Cereals): Mycelial fragments”, “broth” for “broth Cp.33,”, “was” for “is”

Structure (SMILES)	pest or weed control at 200 ppm (Plasmopara viticola) [%]	inhibition at 200 ppm (Pythium ultimum) [%]	inhibition at 200 ppm (Gaeumannomyces graminis) [%]	inhibition at 200 ppm [1] [%]	inhibition at 200 ppm [2] [%]	inhibition at 200 ppm [3] [%]
O=C(Nc1ccc(S(=O)(=O)Nc2ccccn2)cc1)c1cc2c(cc1F)COB2O [Compound 174]	≥ 80	≥ 80				
Cc1nnc(NC(=O)c2cc3c(cc2F)COB3O)s1 [Compound 184]	≥ 80	≥ 80				
O=C(OCc1ccco1)c1cc2c(cc1Cl)COB2O [Compound 210]		≥ 80	≥ 80	≥ 80		
O=C(Nc1cccc(F)c1)c1ccc2c(c1)B(O)OC2 [Compound 285]	≥ 80	≥ 80				
O=C(NCc1ccccc1C(F)(F)F)c1cc2c(cc1Cl)COB2O [Compound 99]		≥ 80			≥ 80	
O=C(Nc1ccccc1N1CCOCC1)c1cc2c(cc1F)COB2O [Compound 170]	≥ 80	≥ 80				
N#CCCOC(=O)c1cc2c(cc1F)COB2O [Compound 420]	≥ 80	≥ 80				
O=C(OCC(F)(F)Cl)c1cc2c(cc1F)COB2O [Compound 374]	≥ 80	≥ 80	≥ 80	≥ 80	≥ 80	≥ 80
O=C(NCc1ccccc1F)c1ccc2c(c1)B(O)OC2 [Compound 262]	≥ 80	≥ 80				
CC(C#N)OC(=O)c1cc2c(cc1F)COB2O (stereo not drawn) [Compound 376]	≥ 80	≥ 80				
O=C(OCC(Cl)(Cl)Cl)c1ccc2c(c1)B(O)OC2 [Compound 321]		≥ 80	≥ 80	≥ 80	≥ 80	≥ 80
CC(C)c1ccc(NC(=O)c2ccc3c(c2)B(O)OC3)cc1 [Compound 279]	≥ 80	≥ 80			≥ 80	
O=C(OCCc1ccc(Cl)cc1Cl)c1cc2c(cc1Cl)COB2O [Compound 190]			≥ 80		≥ 80	
O=C(Nc1cc(C(F)(F)F)ccc1N1CCOCC1)c1ccc2c(c1)B(O)OC2 [Compound 291]			≥ 80			
COc1ccc(NC(=O)c2cc3c(cc2F)COB3O)c(OC)c1 [Compound 155]	≥ 80	≥ 80				
O=C(Nc1ccc(-n2cccc2)cc1)c1cc2c(cc1Cl)COB2O [Compound 125]		≥ 80	≥ 80			
N#CCOC(=O)c1cc2c(cc1Cl)COB2O [Compound 213]	≥ 80	≥ 80				
O=C(NCc1ccccc1OC(F)(F)F)c1cc2c(cc1Cl)COB2O [Compound 95]	≥ 80				≥ 80	
O=C(Nc1ccc2ccccc2n1)c1cc2c(cc1F)COB2O [Compound 179]	≥ 80	≥ 80	≥ 80		≥ 80	≥ 80
O=C(OC1CCCCC1)c1cc2c(cc1F)COB2O [Compound 417]	≥ 80	≥ 80	≥ 80	≥ 80	≥ 80	≥ 80
COc1ccc(-c2ccccc2)cc1NC(=O)c1ccc2c(c1)B(O)OC2 [Compound 289]	≥ 80	≥ 80				
O=C(Nc1ccc(S(=O)(=O)Nc2ccccn2)cc1)c1cc2c(cc1Cl)COB2O [Compound 143]	≥ 80	≥ 80				
O=C(COC(=O)c1cc2c(cc1F)COB2O)c1ccccc1 [Compound 397]	≥ 80	≥ 80		≥ 80	≥ 80	≥ 80
CC(C#N)OC(=O)c1ccc2c(c1)B(O)OC2 (stereo not drawn) [Compound 315]		≥ 80		≥ 80		
O=C(OC1CCOC1)c1ccc2c(c1)B(O)OC2 (stereo not drawn) [Compound 364]	≥ 80	≥ 80		≥ 80		
C#CC(OC(=O)c1cc2c(cc1F)COB2O)c1ccccc1 (stereo not drawn) [Compound 399]	≥ 80	≥ 80	≥ 80	≥ 80	≥ 80	≥ 80

Structure (SMILES)	pest or weed control at 200 ppm (Plasmopara viticola) [%]	inhibition at 200 ppm (Pythium ultimum) [%]	inhibition at 200 ppm (Gaeumannomyces graminis) [%]	inhibition at 200 ppm [1] [%]	inhibition at 200 ppm [2] [%]	inhibition at 200 ppm [3] [%]
O=C(OCCC(F)(F)F)c1cc2c(cc1F)COB2O [Compound 431]		≥ 80	≥ 80	≥ 80	≥ 80	
COc1ccc(NC(=O)c2ccc3c(c2)B(O)OC3)c(OC)c1 [Compound 283]	≥ 80	≥ 80				
Cc1cc(=O)oc2cc(NC(=O)c3cc4c(cc3Cl)COB4O)ccc12 [Compound 139]		≥ 80	≥ 80			
O=C(NCCc1c[nH]c2ccccc12)c1cc2c(cc1Cl)COB2O [Compound 97]		≥ 80	≥ 80			
N#CCCOC(=O)c1ccc2c(c1)B(O)OC2 [Compound 357]	≥ 80	≥ 80				
O=C(OCC1CCCO1)c1cc2c(cc1F)COB2O (stereo not drawn) [Compound 400]	≥ 80	≥ 80		≥ 80		
O=C(OC1COC1)c1cc2c(cc1F)COB2O [Compound 425]	≥ 80	≥ 80	≥ 80			
O=C(Nc1ccc2ccccc2n1)c1cc2c(cc1Cl)COB2O [Compound 154]		≥ 80				≥ 80
O=C(NCc1ccc(Oc2ccccc2)cc1)c1cc2c(cc1Cl)COB2O [Compound 103]	≥ 80	≥ 80	≥ 80		≥ 80	
O=C(OC(CF)CF)c1cc2c(cc1F)COB2O [Compound 368]	≥ 80	≥ 80		≥ 80	≥ 80	
C[Si](C)(C)CCCOC(=O)c1ccc2c(c1)B(O)OC2 [Compound 316]		≥ 80	≥ 80	≥ 80	≥ 80	
O=C(NCc1ccccc1OC(F)(F)F)c1ccc2c(c1)B(O)OC2 [Compound 273]	≥ 80	≥ 80				
O=C(Nc1ccc(Oc2ccccc2)nc1)c1cc2c(cc1F)COB2O [Compound 185]	≥ 80	≥ 80				
O=C(NCc1ccccc1F)c1cc2c(cc1Cl)COB2O [Compound 73]	≥ 80	≥ 80				
O=C(OCc1ccc(C(F)(F)F)cc1Cl)c1cc2c(cc1Cl)COB2O [Compound 200]			≥ 80		≥ 80	
CC(F)COC(=O)c1ccc2c(c1)B(O)OC2 (stereo not drawn) [Compound 335]	≥ 80	≥ 80		≥ 80		
O=C(Nc1ccccc1-c1cc2ccccc2[nH]1)c1ccc2c(c1)B(O)OC2 [Compound 292]	≥ 80	≥ 80	≥ 80			
C=CCC(OC(=O)c1cc2c(cc1Cl)COB2O)C(=O)OC (stereo not drawn) [Compound 222]		≥ 80		≥ 80	≥ 80	
COC(=O)c1sccc1NC(=O)c1ccc2c(c1)B(O)OC2 [Compound 308]	≥ 80				≥ 80	
O=C(Nc1cccc(F)c1)c1cc2c(cc1F)COB2O [Compound 157]		≥ 80	≥ 80			
Cc1ccccc1NC(=O)c1cc2c(cc1F)COB2O [Compound 148]		≥ 80		≥ 80		
O=C(Nc1ccc(Oc2ccccc2)nc1)c1ccc2c(c1)B(O)OC2 [Compound 306]	≥ 80	≥ 80				
O=C(NCc1cccc(Cl)c1)c1ccc2c(c1)B(O)OC2 [Compound 268]	≥ 80	≥ 80				
C=CC(=O)OCC(C)OC(=O)c1cc2c(cc1F)COB2O (stereo not drawn) [Compound 372]		≥ 80			≥ 80	
N#CCOC(=O)c1ccc2c(c1)B(O)OC2 [Compound 338]	≥ 80	≥ 80		≥ 80		
CC(NC(=O)c1cc2c(cc1F)COB2O)c1ccccc1 (stereo not drawn) [Compound 109]	≥ 80	≥ 80				
